Values quoted from earlier work as cited in PMC10138554, “Insights into the Microbicidal, Antibiofilm, Antioxidant and Toxicity Profile of New O-Aryl-Carbamoyl-Oxymino-Fluorene Derivatives” (International Journal of Molecular Sciences, 2023).
Converted amounts (≈) assume the structure as drawn.

Test system: Artemia franciscana Kellog nauplii
Settings: comparison value for brine shrimp toxicity; cited from earlier work

Structure (SMILES): O=P1(N(CCCl)CCCl)NCCCO1 (stereo not shown) [cyclophosphamide]
- IC50 (toxicity): 16.3 µg/mL (≈ 62.4 µM)
